The numbers were not newly measured in patent publication US20250208121A1, “MAMMALIAN PER- AND POLYFLUORINATED-ALKYL COMPOUND (PFAS) BINDING PROTEINS AND USES THEREOF” (Allonnia, LLC, priority 2023, published 2025), which cites them from elsewhere.

For the data set the following is noted: in humans; previous research.

In the case of `O=S(=O)(O)C(F)(F)C(F)(F)C(F)(F)C(F)(F)C(F)(F)C(F)(F)C(F)(F)C(F)(F)F` [PFOS, perfluorooctanesulfonic acid], the half-life entry is on record as “approximately 5.4 years”. `O=C(O)C(F)(F)C(F)(F)C(F)(F)C(F)(F)C(F)(F)C(F)(F)C(F)(F)F` [PFOA, perfluorooctanoic acid]: the half-life is ~3.8 years.
